Results reported in patent US9067871B2, “Aminotetraline derivatives, pharmaceutical compositions containing them, and their use in therapy” (ABBVIE DEUTSCHLAND GMBH & CO KG, priority 2009, dated 2015).
Structures can show the parent of a compound that is named as a salt.

How the values were obtained:
[1] = target: human GlyT1c transporter (Homo sapiens (Human), UniProt P48067); assay: Radioligand binding assay using recombinant CHO cell membranes expressing human GlyT1; settings: human GlyT1c-expressing CHO cell membranes; read-out: radioligand binding Kiapp
human GlyT1c transporter, sequence (P48067 whole entry): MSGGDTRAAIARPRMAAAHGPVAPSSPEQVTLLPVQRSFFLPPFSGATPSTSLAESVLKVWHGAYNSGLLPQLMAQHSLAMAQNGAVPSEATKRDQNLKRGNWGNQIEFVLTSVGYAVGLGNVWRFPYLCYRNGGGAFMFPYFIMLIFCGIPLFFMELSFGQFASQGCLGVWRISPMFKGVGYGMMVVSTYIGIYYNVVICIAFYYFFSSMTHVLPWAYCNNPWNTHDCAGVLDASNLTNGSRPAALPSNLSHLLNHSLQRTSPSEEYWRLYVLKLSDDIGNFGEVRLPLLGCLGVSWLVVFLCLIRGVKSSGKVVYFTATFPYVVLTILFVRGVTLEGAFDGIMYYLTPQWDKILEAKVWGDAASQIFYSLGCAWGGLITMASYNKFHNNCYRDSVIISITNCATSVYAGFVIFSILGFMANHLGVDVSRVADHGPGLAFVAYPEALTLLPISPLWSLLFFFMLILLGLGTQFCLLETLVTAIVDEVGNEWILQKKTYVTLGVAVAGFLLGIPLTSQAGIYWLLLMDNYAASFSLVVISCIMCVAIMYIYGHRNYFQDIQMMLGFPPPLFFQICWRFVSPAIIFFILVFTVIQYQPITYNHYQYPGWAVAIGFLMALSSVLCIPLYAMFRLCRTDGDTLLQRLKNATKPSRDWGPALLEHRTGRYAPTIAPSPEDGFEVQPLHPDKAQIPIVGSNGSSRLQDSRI
Text: 2. Radioligand binding assays using recombinant CHO cell membranes expressing human GlyT1: […]

[2] = target: human GlyT1c (Homo sapiens (Human), UniProt P48067); assay: [3H]-Glycine uptake into recombinant CHO cells expressing human GlyT1; format: cell-based; settings: hGlyT1c_5_CHO cells, 200 nM [3H]-glycine
human GlyT1c, sequence (P48067 whole entry): as above
Outline: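 Recombinant CHO cells stably expressing hGlyT1c, grown 24 h to sub-confluency on scintillating plates, given inhibitor or vehicle plus 200 nM (final) [3H]-glycine in HBSS. Uptake counted continuously by solid-phase scintillation for up to 3 h; nonspecific uptake defined with 10 μM Org24598.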

| Ki [1] [µM] | IC50 [2] [µM] | Structure (SMILES) |
| --- | --- | --- |
| ≤ 0.01 | ≤ 0.1 | Cn1cc(S(=O)(=O)NCCOc2ccc3c(c2)C(Cc2ccc(Cl)cc2Cl)C(N)CC3)cn1 (stereo not shown) [Example 71, 1-Methyl-1H-pyrazole-4-sulfonic acid {2-[7-amino-8-(2,4-dichloro-benzyl)-5,6,7,8-tetrahydro-naphthalen-2-yloxy]-ethyl}-amide hydrochloride] |
| ≤ 0.1 | ≤ 1 | CCCS(=O)(=O)N1CCC[C@@H]1COc1ccc2c(c1)C(Cc1cccc(Cl)c1)C(N)CC2 (stereo partly drawn) [Example 82, 1-(3-Chloro-benzyl)-7-[(R)-1-(propane-1-sulfonyl)-pyrrolidin-2-ylmethoxy]-1,2,3,4-tetrahydro-naphthalen-2-ylamine hydrochloride] |
| ≤ 100 | ≤ 1000 | CCOC(=O)NC1CCc2ccc(OCCNS(=O)(=O)c3cccs3)cc2C1Cc1ccc(Cl)c(Cl)c1 (stereo not shown) [Example 14, {1-(3,4-Dichloro-benzyl)-7-[2-(thiophene-2-sulfonylamino)-ethoxy]-1,2,3,4-tetrahydronaphthalen-2-yl}-carbamic acid ethyl ester] |
| ≤ 100 | ≤ 10 | NC1CCc2ccc(OC(F)F)cc2C1Cc1ccc(Cl)cc1 (stereo not shown) [Example 36, 1-(4-chlorobenzyl)-7-(difluoromethoxy)-1,2,3,4-tetrahydronaphthalen-2-amine hydrochloride] |
| ≤ 10 | ≤ 10 | CCCS(=O)(=O)NCCOc1ccc2c(c1)C(Cc1ccc(Cl)c(Cl)c1)C(NC(=O)OCC)CC2 (stereo not shown) [Example 7] |
